Test results from patent US11832638B2, “N-acyl derivatives of gamma amino-butyric acid and beta alanine as food flavouring compounds” (GIVAUDAN SA, priority 2012, dated 2023).

Key:
[1] = Strawberry flavoured sugar sweetened yoghurt; details: 2 ppm, 1.5% fat yoghurt base, 8% sucrose, strawberry flavour 0.015%
Description: Strawberry Flavoured Sugar Sweetened Yoghurt
The base consisted of a 1.5% fat yoghurt base, sweetened with 8% sucrose by weight, flavoured with a proprietary strawberry flavour @ 0.015%.

[2] = Comparison in a strawberry drink; details: 0.5 ppm, 7% sucrose, 0.1% citric acid, strawberry flavour 0.015%
Description: Comparison in a Strawberry Drink
Base is 7% sucrose, 0.1% citric acid, and a proprietary strawberry flavour @0.015%

## CCCCCCCCCCCCCCCCCC(=O)NCCCC(=O)O [C18:0-gaba]
[1]
  taste description: juicy full, jammy
[2]
  taste description: mild creamy, fruity, juicy and long lasting
